“And” between values parts separate entries of the source, which are not always exact repeats. Equal values may be shown once. Read-outs that look alike come from different tables or passages of the source.
Legend:
DLBCL cancer cell lines = test: MTS cell viability assay, DLBCL cell lines as a group; type: cell-based; conditions: for effect on the viability of DLBCL cancer cell lines: EJ, U2932, CJ and LY19, 72 h incubation, FIGS. 13-16; for IC50: read-out: Average IC50
Description: (§1) The effects of SR141716 and VYR206 were analyzed. MTS assays for cell viability (72 h incubation) were performed on diffuse large B-cell lymphoma (DLBCL) cells—LR, MS, RC and DOHH2 (FIGS. 18A-18D) and mantle cell lymphoma (MCL) cells—Jeko, Mino, Rec-1 and JMP1 (FIGS. 19A-19D).

LP cell line = test: High throughput screening of cell viability, LP; type: cell-based; conditions: 72-hour incubation, read-out: concentration range at which 50% cell viability was reached
Description: (§2) High throughput screening ([…]) assessment of cell viability in 16 DLBCL (FIGS. 20A and 20B) and 8 MCL (FIG. 20C) cell lines were assessed following treatment a 72-hour incubation of the cell lines with cannabidiol, which was obtained as CBD in a coconut oil extract. Cell viability, 90% of the all cells tested, remained viable in a concentration range of 0-5 μM CBD. Complete cell death was obtained at 25 μM CBD concentration only for two cancer cell lines, HT and EJ (FIG. 20B); 50 μM CBD concentration gave a complete cell death viability in seven cell lines MZ, HF, HB, CJ, MS, Toledo and EJ (FIGS. 20A and 20B).

cleaved PARP in RC cells = test: Immunoblot of apoptosis induction in RC cells; type: cell-based; conditions: 24 hrs
[1] = system: DLBCL (RC) and MCL (Mino) cancer cell lines; test: MTS cell viability assay, CBD alone and in combination with chemotherapeutics; type: cell-based; conditions: at the given amounts, 72 h incubation
Description: (§4) The formazan dye is quantified by measuring the absorbance at 490-500 nm.
Cell viability assays (MTS) were performed to determine the viability of DLBCL (RC) and MCL (Mino) cancer cell lines in vitro (72 hour-incubation) in the presence of CB2-agonist—CBD alone and in combination with ibrutinib. Cell viability assays (MTS) were performed to determine the viability of DLBCL (RC) and MCL (Mino) cancer cell lines in vitro (72 h incubation) in the presence of CBD alone and in combination with zanubrutinib (BGB). Cell viability assays (MTS) were performed to determine the viability of DLBCL (RC) and MCL (Mino) cancer cell lines in vitro (72 h incubation) in the presence of CBD alone and in combination with carfilzomib (CFZ). Cell viability assays (MTS) were performed to determine the viability of DLBCL (RC) and MCL (Mino) cancer cell lines in vitro (72 h incubation) in the presence CBD alone and in combination with tumorex (TMX).

CB2 receptor expression = test: Blot analysis of CB2 expression in DLBCL and MCL cell lines; type: cell-based; conditions: FIGS. 21B and 21C
Description: The effect of different amounts of combinations of VYR206 and CBD on various DLBCL and MCL cell lines were evaluated by immunoblot analysis. Immunoblot analysis of cell lysates from various DLBCL and MCL cell lines was performed to show effects on expression of CBi and CB2 receptors with the expression of β-actin as the control for sample loading (FIGS. 21A-21D), with each cell line identified by respective initials.

[2] = system: 16 DLBCL and 8 MCL cell lines; test: High throughput screening of cell viability, all cell lines; type: cell-based; conditions: all cells tested; concentration range 0-5 μM; 72-hour incubation
Description: as §2

HB cell line = test: High throughput screening of cell viability, HB; type: cell-based; conditions: 72-hour incubation
Description: as §2

[3] = system: mantle cell lymphoma cancer cells (Mino, Jeko, SP53, Maver-1Z138, JMP-1, Rec-1 and PF-1); test: High throughput screening of cell viability, MCL cell lines; type: cell-based; conditions: concentration range from 15 μM to 25 μM; FIG. 20C
Description: as §2

MT cell line = test: High throughput screening of cell viability, MT; type: cell-based; conditions: 72-hour incubation, read-out: concentration range at which 50% cell viability was reached
Description: as §2

MZ cell line = test: High throughput screening of cell viability, MZ; type: cell-based; conditions: 72-hour incubation
Description: as §2

EJ cancer cell line = test: High throughput screening of cell viability, EJ; type: cell-based; conditions: 72-hour incubation
Description: as §2

MS cell line = test: High throughput screening of cell viability, MS; type: cell-based; conditions: 72-hour incubation
Description: as §2

MCA cell line = test: High throughput screening of cell viability, MCA; type: cell-based; conditions: 72-hour incubation, read-out: concentration range at which 50% cell viability was reached
Description: as §2

Toledo cell line = test: High throughput screening of cell viability, Toledo; type: cell-based; conditions: 72-hour incubation
Description: as §2

HT cancer cell line = test: High throughput screening of cell viability, HT; type: cell-based; conditions: 72-hour incubation
Description: as §2

HF cell line = test: High throughput screening of cell viability, HF; type: cell-based; conditions: 72-hour incubation
Description: as §2

[4] = system: cleaved caspase 3 and cleaved PARP in BJAB cells; test: Western analysis of apoptosis induction in BJAB cells; type: cell-based; conditions: 24 hrs
Description: No activation of apoptosis in untreated cells (control not shown). […] At 12.5 μM CBD, there was significant apoptosis induction in cleaved PARP expression. The effect of CBD on both cleaved caspase 3 (FIG. 27C) and cleaved PARP expression (FIG. 27D) was analyzed using Western analysis. Expression of the β-actin (FIG. 27E) was used as a control for equal loading.

Cancer cell line DOHH2 = test: High throughput screening of cell viability, DOHH2; type: cell-based; conditions: lower concentration (0-25 μM)
Description: as §2

CJ cell line = test: High throughput screening of cell viability, CJ; type: cell-based; conditions: 72-hour incubation
Description: as §2

DOHH2 DLBCL cell line = test: MTS cell viability assay, DOHH2; type: cell-based; conditions: Homo sapiens, DOHH-2, 72 h
Description: as §1

[5] = system: EJ DLBCL cancer cell line; test: MTS cell viability assay, EJ; type: cell-based; conditions: read-out: IC50 on cell viability
Description: as §4

HF DLBCL cell line = test: MTS cell viability assay, HF; type: cell-based; conditions: read-out: IC50 on cell viability
Description: as §4

LY-10 DLBCL cell line = test: MTS cell viability assay, LY-10; type: cell-based; conditions: read-out: IC50 on cell viability
Description: as §4

LP DLBCL cell line = test: MTS cell viability assay, LP; type: cell-based; conditions: read-out: IC50 on cell viability
Description: as §4

McA DLBCL cell line = test: MTS cell viability assay, McA; type: cell-based; conditions: 72 h, read-out: IC50 on cell viability
Description: as §4

HB DLBCL cell line = test: MTS cell viability assay, HB; type: cell-based; conditions: read-out: IC50 on cell viability
[6] = system: mantle cell lymphoma (MCL; 8 cell lines); test: Cell viability, 8 MCL cell lines (Example 6); type: cell-based; conditions: lower-dose 10-40 μM; steep initial slopes especially in Rec-1 and SP-53; FIG. 17C
Description: (§3) In Examples 6-8, N4-conjugated compounds were analyzed. The effects of CBi inverse agonist SR141716 and its conjugated form-VYR206 were analyzed using diffuse large B-cell lymphoma (DLBCL; 16 cancer cell lines; FIGS. 17A and 17B) and mantle cell lymphoma (MCL; 8 cell lines; FIGS. 17C and 17D) cancer cells. […] Diffuse large B-cell lymphoma cancer cells were resistant to lower VYR206 concentration (<50 μM) (FIG. 17B). […] Rimonabant by itself has severe adverse effects in patients with high or chronic dosing. Curtailing or modifying the potency may help to reduce adverse effects while still providing a therapeutic effect against cancerous cells.

MS DLBCL cell line = test: MTS cell viability assay, MS; type: cell-based; conditions: 72 h
Description: as §1

[7] = system: diffuse large B-cell lymphoma (DLBCL; 16 cancer cell lines); test: Cell viability, 16 DLBCL cancer cell lines (Example 6); type: cell-based; conditions: 16 DLBCL cell lines; compared with VYR206; FIG. 17A
Description: as §3

Ly-3 DLBCL cell line = test: MTS cell viability assay, Ly-3; type: cell-based; conditions: read-out: IC50 on cell viability
Description: as §4

[8] = system: U2932 DLBCL cancer cell line
Description: as §4

RC DLBCL cell line = test: MTS cell viability assay, RC; type: cell-based; conditions: drug concentration 50 μM, 72 h
Description: as §1

[9] = system: CJ DLBCL cancer cell line; test: MTS cell viability assay, CJ; type: cell-based; conditions: read-out: IC50 on cell viability
Description: as §4

LR DLBCL cell line = test: MTS cell viability assay, LR; type: cell-based; conditions: for IC50: read-out: IC50 on cell viability
Description: as §1

WP DLBCL cell line = test: MTS cell viability assay, WP; type: cell-based; conditions: read-out: IC50 on cell viability
[10] = system: LY19 DLBCL cancer cell line; test: MTS cell viability assay, LY19; type: cell-based; conditions: for IC50: read-out: IC50 on cell viability
Description: as §4

[11] = read-out: concentration range at which 50% cell viability was reached

## CN1CCCCC1Cn1cc(C(=O)c2cc([N+](=O)[O-])ccc2I)c2ccccc21 (centres unmarked) [AM 1241]
DLBCL cancer cell lines; MTS
  effect on the viability of DLBCL cancer cell lines: significant effect

## C=C(C)[C@@H]1CCC(C)=C[C@H]1c1c(O)cc(CCCCC)cc1O [CBD, cannabidiol]
LP cell line
  IC50: 15 to 20 µM
Cleaved PARP in RC cells
  concentration with significant apoptosis induction in cleaved PARP expression: 12.5 µM
[1]
  viability, agents individually: modest reduction in viability
CB2 receptor expression
  CB2 expression: modulation
[2]
  cell viability: 90%
HB cell line
  concentration giving complete cell death: 50 µM
HB cell line; [11]
  IC50: 15 to 20 µM
[3]
  sensitivity of MCL cancer cells: less sensitive
MT cell line
  IC50: 15 to 20 µM
MZ cell line
  concentration giving complete cell death: 50 µM
MZ cell line; [11]
  IC50: 15 to 20 µM
EJ cancer cell line
  concentration giving complete cell death: 50 µM and 25 µM
EJ cancer cell line; [11]
  IC50: 15 to 20 µM
DLBCL cancer cell lines; LY19 and LR, alone and in combination, MTS, 72 h
  viability response compared with VYR206: generally the same response as VYR206
MS cell line
  concentration giving complete cell death: 50 µM
MCA cell line
  IC50: 15 to 20 µM
Toledo cell line
  concentration giving complete cell death: 50 µM
HT cancer cell line
  concentration giving complete cell death: 25 µM
HF cell line
  concentration giving complete cell death: 50 µM
[4]
  concentration with significant apoptosis induction in cleaved PARP expression: 12.5 µM
[4]; increasing concentration
  cleaved caspases 3 and cleaved PARP: concentration-dependent increase
Cancer cell line DOHH2
  susceptibility: less susceptible
CJ cell line
  concentration giving complete cell death: 50 µM
CJ cell line; [11]
  IC50: 15 to 20 µM

## CCNC1(C(N)=O)CCN(c2ncnc3c2nc(-c2ccccc2Cl)n3-c2ccc(Cl)cc2)CC1 [CP945,598]
DLBCL cancer cell lines; MTS
  effect on the viability of DLBCL cancer cell lines: significant results depending on the specific cell line

## Cc1c(C(=O)NN2CCCCC2)nn(-c2ccc(Cl)cc2Cl)c1-c1ccc(Cl)cc1 [SR141716, N-(Piperidin-1-yl)-5-(4-chlorophenyl)-1-(2,4-dichlorophenyl)-4-methyl-1H-pyrazole-3-carboxamide]
DOHH2 DLBCL cell line
  inhibition at 50 µM: > 50%
[5]; 72 h
  IC50: 20.6 µM
HF DLBCL cell line; 72 h
  IC50: 32.7 µM
LY-10 DLBCL cell line; LY10, 72 h
  IC50: 25.1 µM
LP DLBCL cell line; 72 h
  IC50: 27.1 µM
McA DLBCL cell line
  IC50: 21.8 µM
HB DLBCL cell line; 72 h
  IC50: 29.4 µM
[6]
  cell viability in MCL cell lines: reduction of cell viability
MS DLBCL cell line; read-out: IC50 on cell viability
  IC50: 23.7 µM
MS DLBCL cell line; MS, drug concentration 50 μM, MTS
  induction of cell death: < 90%
[7]
  cell viability of DLBCL: markedly decreased viability
Ly-3 DLBCL cell line; 72 h
  IC50: 25.2 µM
[8]
  IC50: 26.2 µM
DLBCL cancer cell lines; MTS
  effect on the viability of DLBCL cancer cell lines: significant results depending on the specific cell line
DLBCL cancer cell lines; LR, MS, RC and DOHH2, MTS, 72 h
  effectiveness on DLBCL, comparison of the two drugs: more effective to DLBCL than VYR206
DLBCL cancer cell lines
  IC50: 24.4 µM
RC DLBCL cell line
  induction of cell death: < 90%
[9]; 72 h
  IC50: 13.5 µM
LR DLBCL cell line; 72 h
  IC50: 30.9 µM
LR DLBCL cell line; LR, drug concentration 50 μM, MTS, 72 h
  induction of cell death: < 90%
WP DLBCL cell line; 72 h
  IC50: 25.5 µM
[10]; 72 h
  IC50: 15.2 µM
[10]; LY19, MTS, 72 h incubation
  effect on viability, comparison between cell lines: more potent effect on LY19

## C=C(C)[C@@H]1CCC(C)=C[C@H]1c1c(O)cc(CCCCC)cc1OCCCN1CCCNCCNCCCNCC1 [VYC203, N4-Cannabidiol]
Cleaved PARP in RC cells; 6.25, 12.5, 25 and 50 μM
  cleaved PARP expression: Concentration-dependent increase

## C=CC(=O)N1CCC[C@@H](n2nc(-c3ccc(Oc4ccccc4)cc3)c3c(N)ncnc32)C1 [ibrutinib]
[5]; EJ, MTS, 72 h incubation
  IC50: 30 µM
HF DLBCL cell line; HF, MTS, 72 h incubation
  IC50: 18 µM
LY-10 DLBCL cell line; LY10, LY-10, MTS, 72 h incubation
  IC50: 0.5 µM
LP DLBCL cell line; LP, MTS, 72 h incubation
  IC50: 6 µM
HB DLBCL cell line; HB, MTS, 72 h incubation
  IC50: 20 µM
Ly-3 DLBCL cell line; Ly-3, MTS, 72 h incubation
  IC50: 20 µM
[8]
  IC50: 15 µM
DLBCL cancer cell lines; average over the 13 DLBCL cell lines of Table 5
  IC50: 15.8 µM
[9]; CJ, MTS, 72 h incubation
  IC50: 25 µM
LR DLBCL cell line; LR, MTS, 72 h incubation
  IC50: 20 µM
WP DLBCL cell line; WP, MTS, 72 h incubation
  IC50: 1 µM
[10]; LY19, MTS, 72 h incubation
  IC50: 10 µM
